The results in this text go back to patent US20040209799A1, “JAK/STAT pathway inhibitors and the uses thereof” (priority 2000, published 2004).

For test [1], the system named is tumor necrosis factor-α (TNF-α) mRNA. Briefly: northern blot, IL-1β-induced mRNA in human articular chondrocytes: TNF-α. The format is cell-based. Particulars: 5 μM, 2 ng/ml rhIL-1β, 24 hours, free base or trifluoroacetic acid salt form. The protocol: Frozen human articular chondrocyte cell strain HC30-0198 (described in Example 1) was thawed, and cultured in monolayer in T150 tissue culture flasks (Corning Costar, Cambridge, Mass.) as described above to 1-5 days post-confluence. Test cultures were rinsed in PBS, and preincubated for 2 hours with 10 ml of serum-free DMEM containing 5 μM DBH (synthetic), in its free base or trifluoroacetic acid salt form. An additional 10 ml of serum-free DMEM containing 5 μM DBH, 4 ng/ml recombinant human interleukin-1β (rhIL-1β; final concentration of 2 ng/ml) (R&D Systems, Minneapolis, Minn.), and 2% antibiotic solution (final concentration of 1%), were then added for 24 hours.
Two control cultures were run in parallel: one without DBH (rhIL-1β alone), and another without DBH or rhIL-1β.
Total RNA was fixed to the membrane using a Stratalinker® 1800 UV Crosslinker (Stratagene, La Jolla, Calif.). […]
The blot was successively washed two times in 2×SSC/0.05% SDS (15 min/wash at room temperature), and two times in 0.1×SSC/0.1% SDS (30 minutes/wash at 65° C.). The blot was allowed to air dry, and the radioactive signal was visualized and quantified using a Fujifilm, BAS-1500 phosphorimager (Fuji, Stamford, Conn.). […]

Test [2] concerns the target T1, JAK3 (Homo sapiens, UniProt P52333).
T1 sequence (P52333 1-1124): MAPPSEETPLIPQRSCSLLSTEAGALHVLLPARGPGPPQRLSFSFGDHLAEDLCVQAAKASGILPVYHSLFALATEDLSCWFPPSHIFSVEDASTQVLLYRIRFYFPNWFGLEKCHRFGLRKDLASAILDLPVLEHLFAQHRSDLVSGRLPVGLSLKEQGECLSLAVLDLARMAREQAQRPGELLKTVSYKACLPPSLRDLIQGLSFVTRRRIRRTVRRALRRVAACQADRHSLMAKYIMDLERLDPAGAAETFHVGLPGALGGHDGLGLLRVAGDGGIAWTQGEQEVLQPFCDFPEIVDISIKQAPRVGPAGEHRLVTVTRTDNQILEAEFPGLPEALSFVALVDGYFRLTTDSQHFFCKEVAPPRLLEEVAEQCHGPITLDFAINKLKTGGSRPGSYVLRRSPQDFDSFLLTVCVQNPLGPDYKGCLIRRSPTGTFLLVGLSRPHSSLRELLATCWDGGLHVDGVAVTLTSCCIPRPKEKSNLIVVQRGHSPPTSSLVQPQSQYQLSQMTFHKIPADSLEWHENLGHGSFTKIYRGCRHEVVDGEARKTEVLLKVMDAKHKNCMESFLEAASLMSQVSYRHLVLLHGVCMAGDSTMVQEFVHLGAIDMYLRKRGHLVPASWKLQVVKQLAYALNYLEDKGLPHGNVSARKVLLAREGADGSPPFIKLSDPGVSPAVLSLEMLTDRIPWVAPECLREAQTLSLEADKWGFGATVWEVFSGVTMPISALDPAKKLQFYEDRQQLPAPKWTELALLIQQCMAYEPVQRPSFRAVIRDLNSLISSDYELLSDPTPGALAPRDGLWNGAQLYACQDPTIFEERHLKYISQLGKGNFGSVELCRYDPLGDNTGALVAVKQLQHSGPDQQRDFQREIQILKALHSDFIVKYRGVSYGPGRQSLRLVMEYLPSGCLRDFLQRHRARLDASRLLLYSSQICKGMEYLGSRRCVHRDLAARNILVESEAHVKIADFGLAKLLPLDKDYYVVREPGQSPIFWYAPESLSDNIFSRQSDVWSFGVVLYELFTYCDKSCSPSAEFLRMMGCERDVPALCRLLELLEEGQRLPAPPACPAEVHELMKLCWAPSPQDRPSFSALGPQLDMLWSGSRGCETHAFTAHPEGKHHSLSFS
The test is described as follows: tyrosine kinase ELISA, DBH inhibition of JAK3 (Example 6). Type of test: biochemical. Particulars: GAS 1 biotinylated peptide substrate, 0-1250 μM ATP, 30 min at 37° C., read-out: inhibition constant (Ki). The protocol:
Nunc-Immunoplate Maxisorp flat-bottomed capture plates (Nalge Nunc International, Rochester, N.Y.) were coated with 80 μl/well anti-phosphotyrosine PY54 MAb antibody (Transduction Labs, Lexington, Ky.), diluted to 2 μg/ml in coating buffer (10 mM phosphate, pH 7.2+0.02% NaN3), and allowed to adsorb overnight at 4° C. The plates were washed (all washes are 4× with TBST: 25 mM Tris/HCl, pH 8.0, 150 mM NaCl+0.05% Tween-20), and 200 μl/well of blocking buffer (TBST+1% BSA) was added. The plates were sealed and incubated at 37° C. for 60 min or overnight at 4° C., and washed again.
Kinase reactions were run in 50 μl volumes with biotinylated peptide substrate in a round-bottom plate (Corning, Corning, N.Y.). Kinase reactions mixtures contained; 20 μl 50 μM GAS 1 biotinylated peptide (LCBiotin-EGPWLEEEEEAYGWMDF-amide), 0-1250 μM ATP in kinase buffer, 10 μl 50 mM MgCl2 in 2× kinase buffer (50 mM imidazole/HCl, 2 mM EDTA, 0.2 mM EDTA, 0.030% Brij-35, pH 6.8), 10 μl 0-50 μM DBH in water containing 0.2% Pluronic-104 and 3% dimethyl sulfoxide (DMSO), and 10 μl JAK3 enzyme diluted in kinase buffer. A phosphopeptide standard curve (0-10 nM) using kinase buffer as the diluent was also tested.
Kinase reactions were run for 30 min at 37° C., then stopped by adding 15 μl/well of 0.125 M EDTA, pH 6.8. […] Samples were read at A450-A620.
A general note: An ELISA detects its analyte on a solid surface through an enzyme-linked reagent.

The term Ki denotes a measure of affinity in units of concentration, obtained from inhibition or displacement.

The structures appear in SMILES notation.

`NC1=NC(=O)C(=C2CCNC(=O)c3[nH]ccc32)N1` [DBH, 4-(2-amino-4-oxo-2-imidazolin-5-ylidene)-4,5,6,7-tetrahydropyrrolo(2,3-c) azepine-8-one]: the “inhibition of IL-1β-induced upregulation of tumor necrosis factor-α (TNF-α) mRNA” value in test [1] is “inhibit to various degrees”. Also, the inhibition constant Ki in test [2] worked out at 0.286 ± 0.016 µM.
